Experimental data: patent US11459340B2, “Tri-substituted heteroaryl derivatives as Src homology-2 phosphatase inhibitors” (Nikang Therapeutics, Inc., priority 2018, dated 2022)
pIC50: −log10 of the molar value.

Each compound was assayed against SHP2 (Homo sapiens (Human), UniProt Q06124) (assay: SHP2 Allosteric Inhibition Assay (DiFMUP substrate, bisphos-IRS1 peptide activation)). Details: 0.5 μM bisphos-IRS1 peptide, 100 uM DiFMUP, room temperature.
Assay type: biochemical
Description: At the basal state, SHP2 is auto-inhibited and access of substrates to the catalytic site is blocked by the […] interactions between the SH2 domains and the PTP domain. When bis-tyrosyl-phosphorylated peptides bind to SH2 domain of SHP2, the PTP domain becomes available for substrate recognition and reaction catalysis and SHP2 is allosterically activated. SHP2 catalytic activity can be measured using a fluorogenic artificial substrate DiFMUP.
The phosphatase reactions were carried out at room temperature in 384-well black polystyrene plates (Greiner Bio-One, Cat #784076) using assay buffers containing 60 mM HEPES, pH 7.2, 75 mM NaCl, 75 mM KCl, 1 mM EDTA, 0.05% P-20, and 5 mM DTT.
0.33 nM of […] was co-incubated with of 0.5 μM of bisphos-IRS 1 peptide (sequence: H2N-LN(pY)IDLDLV(dPEG8)LST(pY)ASINFQK-amide) and various concentrations of compounds for 30-60 min at room temperature. Then the reaction was initiated by addition of the surrogate substrate DiFMUP (Invitrogen, Cat #D6567, 100 uM final).
The real-time conversion of DiFMUP to DiFMU (6,8-difluoro-7-hydroxyl-4-methyl-coumarin) was measured every 5 min for 30 min using a microplate reader (CLARIOstar, BMG Labtech) with excitation and emission wavelengths of 340 nm and 450 nm, respectively. Initial reaction rates were determined by linear fitting of the data and the inhibitor dose response curves were analyzed using normalized IC50 regression curve fitting with control based normalization.

Chain of SHP2 (Q06124 whole entry): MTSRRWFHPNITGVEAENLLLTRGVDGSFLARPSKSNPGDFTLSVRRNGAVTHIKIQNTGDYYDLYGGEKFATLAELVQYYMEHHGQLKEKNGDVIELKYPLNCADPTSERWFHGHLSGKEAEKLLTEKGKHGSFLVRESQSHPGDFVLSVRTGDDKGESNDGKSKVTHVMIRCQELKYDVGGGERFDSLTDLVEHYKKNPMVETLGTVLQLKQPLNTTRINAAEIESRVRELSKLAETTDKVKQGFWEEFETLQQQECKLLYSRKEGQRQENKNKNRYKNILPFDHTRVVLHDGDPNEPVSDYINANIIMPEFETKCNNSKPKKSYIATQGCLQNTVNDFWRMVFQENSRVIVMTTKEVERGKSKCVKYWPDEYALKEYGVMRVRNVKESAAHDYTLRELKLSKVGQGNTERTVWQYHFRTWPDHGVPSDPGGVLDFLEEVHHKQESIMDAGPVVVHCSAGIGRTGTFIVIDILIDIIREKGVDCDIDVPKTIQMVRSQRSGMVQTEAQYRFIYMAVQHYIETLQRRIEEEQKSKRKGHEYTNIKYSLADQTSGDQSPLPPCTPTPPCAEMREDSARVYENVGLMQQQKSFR

Structure (SMILES)	pIC50
C[C@@H]1OCC2(CCN(c3ncc(Sc4ccnc5c4OC[C@@H]4C[C@H](F)CN54)nc3CO)CC2)[C@@H]1N [Compound 14, (3-((3S,4S)-4-amino-3-methyl-2-oxa-8-azaspiro[4.5]decan-8-yl)-6-(((6aS,8S)-8-fluoro-6a,7,8,9-tetrahydro-6H-pyrido[3,2-b]pyrrolo[1,2-d] [1,4]oxazin-4-yl)thio)pyrazin-2-yl)methanol]	7.89
C[C@@H]1OCC2(CCN(c3ncc(Sc4ccnc5c4OC[C@@H]4C[C@@H](F)CN54)nc3CO)CC2)[C@@H]1N [Compound 15, (3-((3S,4S)-4-amino-3-methyl-2-oxa-8-azaspiro[4.5]decan-8-yl)-6-(((6aS,8R)-8-fluoro-6a,7,8,9-tetrahydro-6H-pyrido[3,2-b]pyrrolo[1,2-d] [1,4]oxazin-4-yl)thio)pyrazin-2-yl)methanol]	8.30
CO[C@H]1C[C@H]2COc3c(Sc4cnc(N5CCC6(CC5)CO[C@@H](C)[C@H]6N)c(CO)n4)ccnc3N2C1 [Compound 16, (3-((3S,4S)-4-amino-3-methyl-2-oxa-8-azaspiro[4.5]decan-8-yl)-6-(((6aS,8S)-8-methoxy-6a,7,8,9-tetrahydro-6H-pyrido[3,2-b]pyrrolo[1,2-d][1,4]oxazin-4-yl)thio)pyrazin-2-yl)methanol]	8.10
C[C@@H]1OCC2(CCN(c3ncc(Sc4ccnc5c4OC[C@@H]4C[C@H](O)CN54)nc3CO)CC2)[C@@H]1N [Compound 18, (6aS,8S)-4-((5-((3S,4S)-4-amino-3-methyl-2-oxa-8-azaspiro[4.5]decan-8-yl)-6-(hydroxymethyl)pyrazin-2-yl)thio)-6a,7,8,9-tetrahydro-6H-pyrido[3,2-b]pyrrolo[1,2-d][1,4] oxazin-8-ol]	8.22
C[C@@H]1OCC2(CCN(c3ncc(Sc4ccnc5c4OC[C@@H]4C[C@@H](O)CN54)nc3CO)CC2)[C@@H]1N [Compound 19, (6aS,8R)-4-((5-((3S,4S)-4-amino-3-methyl-2-oxa-8-azaspiro[4.5]decan-8-yl)-6-(hydroxymethyl)pyrazin-2-yl)thio)-6a,7,8,9-tetrahydro-6H-pyrido[3,2-b]pyrrolo[1,2-d][1,4]oxazin-8-ol]	8.10
C[C@@H]1OCC2(CCN(c3ncc(Sc4ccnc5c4OC[C@@H]4C[C@H](O[C@@H]6CCOC6)CN54)nc3CO)CC2)[C@@H]1N [Compound 28, (3-((3S,4S)-4-amino-3-methyl-2-oxa-8-azaspiro[4.5]decan-8-yl)-6-(((6aS,8S)-8-(((R)-tetrahydrofuran-3-yl)oxy)-6a,7,8,9-tetrahydro-6H-pyrido[3,2-b]pyrrolo[1,2-d][1,4]oxazin-4-yl)thio)pyrazin-2-yl)methanol]	7.92
